How the values were obtained:
[1] = cited from earlier work
[2] = water; cited from earlier work
[3] = test system: test subjects; test: Sensory evaluation of milk chocolate containing sucralose (aftertaste); assay type: in vivo, humans; details: milk chocolate with 42.41 g/100 g isomaltulose and 0.02 g/100 g sucralose; 12 to 17 test subjects; assessed after chocolate completely dissolved in the mouth; compared with trehalose, lactite, maltite, erythrite chocolates; FIG. 1
Procedure: Milk chocolates containing sucralose were produced, which contained either a sugar substitute or isomaltulose (Palatinose™) as the sweetener that is absorbed by the body. These milk chocolates were evaluated sensorially with respect to their aftertaste that is typical of sucralose.
“You have before you samples of chocolate containing sucralose. Sucralose has a pronounced, lingering aftertaste. The following samples are to be evaluated with regard to whether, and if so to what extent, this aftertaste is perceptible.
Please take a serving of chocolate (1 “square”) and suck on it. […] Then please assess the aftertaste of the sample.
To neutralize the taste, please have some of the prepared tea and the white bread.”
Samples: • Milk chocolate containing sucralose with isomaltulose • Milk chocolate containing sucralose with trehalose • Milk chocolate containing sucralose with lactite • Milk chocolate containing sucralose with maltite • Milk chocolate containing sucralose with erythrite
The sensory evaluation of the chocolates containing sucralose was performed by 12 to 17 test subjects.
The aftertaste of the sucralose was assessed after the chocolate had been completely dissolved in the mouth.

[4] = test system: test subjects; test: Sensory evaluation of aqueous solutions containing sucralose (aftertaste); assay type: in vivo, humans; details: aqueous solution 7.916% isomaltulose, 0.004% sucralose; 5 test subjects; assessed immediately following consumption; compared with maltodextrin or saccharose solutions; scale 0=no perceptible aftertaste, 2=clearly perceptible
Procedure: Aqueous solutions containing sucralose were prepared, which contained isomaltulose, maltodextrin or saccharose as a sweetener. All the solutions also contained sucralose. […] Samples: • Maltodextrin solution: 7.916% maltodextrin; 0.004% sucralose; 92.080% water • Palatinose™ solution: 7.916% isomaltulose; 0.004% sucralose; 92.080% water • Saccharose solution: 5.603% saccharose; 0.004% sucralose; 94.393% water The sensory evaluation of the solutions containing sucralose was performed by 5 test subjects. The aftertaste of the sucralose was assessed immediately following consumption of the solution containing sucralose.

**Q.** For OC[C@H]1O[C@H](O[C@]2(CCl)O[C@H](CCl)[C@@H](O)[C@@H]2O)[C@H](O)[C@@H](O)[C@H]1Cl [sucralose, 1,6-dichloro-1,6-didesoxy-β-D-fructofuranosyl-4-chloro-4-desoxy-α-D-galactopyranoside], which “sweetness relative to sugar” value ([1]; sucralose in aqueous solution) is on record?
**A.** approximately 600 times sweeter than sugar

**Q.** Which results are given for O=C(CO)[C@@H](O)[C@H](O)[C@H](O)CO[C@H]1O[C@H](CO)[C@@H](O)[C@H](O)[C@H]1O [isomaltulose, 6-O-α-D-glucopyranosyl-fructose]?
**A.** aqueous solubility [2]: 0.49 g anhydrous isomaltulose per gram of water; lingering aftertaste of sucralose [3]: decreases the lingering aftertaste; sweetening power ([1]; 10% aqueous isomaltulose solutions): approximately 0.4 of the sweetening power of sugar; lingering aftertaste of sucralose [4]: decreases the lingering aftertaste

— US20080175974A1, “Isomaltulose as an Aftertaste-Shortening Agent” (Suedzucker Aktiengesellschaft Mannheim/Ochsenfurt, priority 2005, published 2008)
